Assay results: ChEMBL document CHEMBL1201862, “PubChem BioAssay data set” (2004)
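Dose response: 5 concentrations. Exposure: 48 h. Format: 96-well plates. Endpoint: linear interpolation; highest concentration if not reached. Abbreviation: GI50, concentration required for 50% inhibition of growth.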 Activity calls are given as the source filed them. Rule as the data show it: active = GI50 up to about 1.1 µM and inactive = higher. Residues, ends and D or L forms follow the SMILES beside them. *: point of attachment. Cbz = O=C(OCc1ccccc1)*

How the values were obtained:
Experiment in all cases: NCI-60 cell line screen, 48 h
NCI/ADR-RES = test system: NCI/ADR-RES
T47D = test system: T47D
BT-549 = test system: BT-549
MCF7 = test system: MCF7
DMS-114 = test system: DMS-114
M19-MEL = test system: M19-MEL
DLD-1 = test system: DLD-1
HOP-18 = test system: HOP-18

Compound | GI50 (NCI/ADR-RES) | GI50 (T47D) | GI50 (BT-549) | GI50 (MCF7) | GI50 (DMS-114) | GI50 (M19-MEL) | GI50 (DLD-1) | GI50 (HOP-18)
CCOC(=O)C(NC(=O)CC)(Nc1cc(C)on1)C(F)(F)F (stereo not given) | > 100 µM (inactive) | > 100 µM (inactive) | > 100 µM (inactive) | – | – | – | – | –
O=C1Nc2ccccc2C1Cc1ccccc1 (stereo not given) | – | 88.7 µM (inactive) | – | > 100 µM (inactive) | – | – | – | –
CC1C2(C)OC(=N)C(C#N)(C(C)O2)C1(C#N)C#N (stereo not given) | 77.1 µM (inactive) | 30.1 µM (inactive) | 31.6 µM (inactive) | 24.8 µM (inactive) | – | – | – | –
O=C1c2ccccc2C(=O)c2[nH]cnc21 | – | – | – | – | 31.5 µM (inactive) | 20.4 µM (inactive) | 27 µM (inactive) | –
Nc1nc(-c2ccco2)cc(-c2ccc(CO)o2)n1 | – | – | – | – | > 100 µM (inactive) | > 100 µM (inactive) | – | –
O=C(c1ccccc1)N1CCC(Nc2cccnc2)O1 (stereo not given) | > 100 µM (inactive) | 92.9 µM (inactive) | > 100 µM (inactive) | > 100 µM (inactive) | – | – | – | –
CCOC(=O)C1Cc2[nH]c3ccccc3c2C(C)C1C (stereo not given) | – | – | – | – | 22.3 µM (inactive) | – | 15.8 µM (inactive) | –
Cn1c(=O)[nH]c2[nH]c3ccccc3c2c1=O | > 100 µM (inactive) | > 100 µM (inactive) | > 100 µM (inactive) | > 100 µM (inactive) | – | – | – | –
CN(C)CCCNC(=O)c1cc(NC(=O)CCCn2c3ccccc3c3ccccc32)cn1C | > 100 µM (inactive) | 19.1 µM (inactive) | > 100 µM (inactive) | 35.5 µM (inactive) | – | – | – | –
COC(=O)c1ccc2c(c1)S/C(=C/c1ccc3ccc4cccc5ccc1c3c45)S2 | 23.7 µM (inactive) | > 100 µM (inactive) | 35.8 µM (inactive) | 33.3 µM (inactive) | – | – | – | –
C1OCN2c3nonc3N3COCN4c5nonc5N1C2C43 (stereo not given) | > 100 µM (inactive) | > 100 µM (inactive) | > 100 µM (inactive) | 49.1 µM (inactive) | – | – | – | –
COc1ccc2oc(=O)c(-c3csc(C)n3)cc2c1 | – | – | 15.8 µM (inactive) | > 100 µM (inactive) | – | – | – | –
CCOC(=O)/C=C/C1=C(Br)[C@@]2(C)CC[C@@H]3c4ccc(O)cc4CC[C@H]3[C@@H]2C1 | 14.7 µM (inactive) | 4.86 µM (inactive) | 14.3 µM (inactive) | 13.6 µM (inactive) | – | – | – | –
O=[N+]([O-])c1ccc(N/N=C(\c2ccccc2)c2ccccn2)nc1 | 0.658 µM (active) | 0.0107 µM (active) | 15.5 µM (inactive) | < 0.0492 µM (active) | – | – | – | –
CC(=O)OC1c2ccccc2CCCCCCC12OCCO2 (stereo not given) | – | – | – | – | 61.5 µM (inactive) | – | > 100 µM (inactive) | > 100 µM (inactive)
COc1ccc(/C=C2/CCS(=O)(=O)c3ccc(C)cc3C2=O)cc1OC | 11.8 µM (inactive) | 13.2 µM (inactive) | 9.27 µM (inactive) | 8.38 µM (inactive) | – | – | – | –
CC(C)(C)c1ccc2c(c1)CNCCNCc1cc(C(C)(C)C)ccc1OCC1(CO2)COc2ccc(C(C)(C)C)cc2CNCCNCc2cc(C(C)(C)C)ccc2OC1 | 1.63 µM (inactive) | 1.91 µM (inactive) | 1.71 µM (inactive) | 0.461 µM (active) | – | – | – | –
CCOC(=O)N1CCN(Cc2cc(=O)n3ccc(C)cc3n2)CC1 | > 100 µM (inactive) | > 100 µM (inactive) | > 100 µM (inactive) | > 100 µM (inactive) | – | – | – | –
Oc1c(N2CCCCC2)cc(-c2cc(N3CCCCC3)c(O)c3ccccc23)c2ccccc12 | 34.2 µM (inactive) | 32.4 µM (inactive) | – | 22.9 µM (inactive) | – | – | – | –
COc1ncc(C=C(C#N)C#N)c(OC)n1 | 22.6 µM (inactive) | > 100 µM (inactive) | 33.7 µM (inactive) | 36.7 µM (inactive) | – | – | – | –
Cc1cn(C2CC(N)C(C(=O)O)O2)c(=O)[nH]c1=O (stereo not given) | > 100 µM (inactive) | – | > 100 µM (inactive) | > 100 µM (inactive) | – | – | – | –
COc1ccc(OC)c2c1C=CC(Br)=CC2 | 0.296 µM (active) | 0.192 µM (active) | 0.303 µM (active) | 0.295 µM (active) | – | – | – | –
O=C1C[C@@H]2[C@@H](c3ccccc3)[C@@H]3C(=O)c4ccccc4NC(=O)[C@H]3[C@]2(O)c2ccccc2N1 | – | – | – | – | > 100 µM (inactive) | > 100 µM (inactive) | – | –
CCN(CC)CCNc1c(OC)cc(C)c2sc3ccccc3c(=O)c12 | 5.27 µM (inactive) | 11.4 µM (inactive) | 11.7 µM (inactive) | 4.44 µM (inactive) | – | – | – | –
CC(Cc1ccccc1)N(C)Cc1nc(C2CCC([N+](=O)[O-])O2)no1 (stereo not given) | 11.9 µM (inactive) | 19.1 µM (inactive) | – | 4.06 µM (inactive) | – | – | – | –
COc1c(C)c(OC)c2c(c1O)[C@@H]1[C@@H]3Cc4c(OC)c(C)c(OC)c(O)c4[C@H](CNC(=O)c4ccc5ccccc5n4)N3[C@@H](C#N)[C@H](C2)N1C | 0.0101 µM (active) | 0.000277 µM (active) | 0.000377 µM (active) | 0.000424 µM (active) | – | – | – | –
CNC(=S)Nc1ccc(OC)c2ccccc12 | > 10 µM (inactive) | > 10 µM (inactive) | > 10 µM (inactive) | > 10 µM (inactive) | – | – | – | –

Compound | GI50 (NCI/ADR-RES) | GI50 (T47D) | GI50 (BT-549) | GI50 (MCF7) | GI50 (DMS-114) | GI50 (M19-MEL) | GI50 (DLD-1) | GI50 (HOP-18)
CC1CCc2c(sc3ncnc(N/N=C/c4ccc(Cl)c(Cl)c4)c23)C1 (stereo not given) | – | – | – | – | 3.79 µM (inactive) | 19.8 µM (inactive) | 9.33 µM (inactive) | –
CC(C)CC(C#CCCOC(=O)c1ccccc1)OC(=O)c1ccccc1 (stereo not given) | – | > 10 µM (inactive) | > 10 µM (inactive) | > 10 µM (inactive) | – | – | – | –
O=C(O)c1cccc(/N=N/c2c(S(=O)(=O)O)ccc3c2C(=O)c2ccccc2C3=O)c1O | > 100 µM (inactive) | > 100 µM (inactive) | > 100 µM (inactive) | > 100 µM (inactive) | – | – | – | –
CCOC(=O)CNc1nc(=O)c2c(=O)oc(Cl)cc2o1 | 21.4 µM (inactive) | 18.9 µM (inactive) | – | – | – | – | – | –
Cc1ccc(S(=O)(=O)N(CC(O)COc2ccccc2)c2c(F)c(F)c(F)c(F)c2F)cc1 (stereo not given) | 17 µM (inactive) | 18 µM (inactive) | 13.5 µM (inactive) | 10.5 µM (inactive) | – | – | – | –
O=C1CCCC/C1=C\c1ccc(Br)cc1 | 3.73 µM (inactive) | 23.3 µM (inactive) | 14.5 µM (inactive) | 2.71 µM (inactive) | – | – | – | –
CCOC(=O)CSc1nc(N)c2c(-c3ccccc3)c3c(nc2n1)CCCC3 | > 100 µM (inactive) | > 100 µM (inactive) | > 100 µM (inactive) | > 100 µM (inactive) | – | – | – | –
Cc1cccc(-n2c(C)nc3ccc(NC4OC(CO)C(O)C(O)C4O)cc3c2=O)c1 (stereo not given) | > 100 µM (inactive) | > 100 µM (inactive) | > 100 µM (inactive) | > 100 µM (inactive) | – | – | – | –
CN1CCCN2CCN(C)CCN(CC1)CC2 | > 100 µM (inactive) | > 100 µM (inactive) | > 100 µM (inactive) | > 100 µM (inactive) | – | – | – | –
CCOc1ccc2ccccc2c1NC1=NCCO1 | 70.3 µM (inactive) | 29.7 µM (inactive) | – | 37.8 µM (inactive) | – | – | – | –
O=C1C=C(OCCCCl)C(=O)c2c(O)ccc(O)c21 | 2.65 µM (inactive) | 2.19 µM (inactive) | 1.09 µM (active) | 0.195 µM (active) | – | – | – | –
Cc1cc(-c2ccccc2)nc(Nc2nc3ccccc3o2)n1 | – | – | – | – | > 100 µM (inactive) | > 100 µM (inactive) | > 100 µM (inactive) | –
O=[N+]([O-])C1=Cc2c(O)ccc(O)c2C2c3ccccc3NC12 (stereo not given) | 7.43 µM (inactive) | 7.03 µM (inactive) | 12.3 µM (inactive) | 2.71 µM (inactive) | – | – | – | –
CCOC(=O)C(C(N)=O)C1=Nc2cc([N+](=O)[O-])ccc2N/C1=C\C(=O)c1ccccc1 (stereo not given) | 16.8 µM (inactive) | 26 µM (inactive) | 21.7 µM (inactive) | 12.4 µM (inactive) | – | – | – | –
CO[C@]12C[C@@H](CNC(=O)c3cc(Br)c[nH]3)O[C@H]1NC(=O)N2 | > 100 µM (inactive) | > 100 µM (inactive) | > 100 µM (inactive) | > 100 µM (inactive) | – | – | – | –
CCN(CC)c1c(C(C)(C)C)c(=O)n2ccsc2c1OC(C)=O | 13 µM (inactive) | – | 15.5 µM (inactive) | 15.6 µM (inactive) | – | – | – | –
C/C(Cl)=N/OC(=O)Nc1ccc(S(N)(=O)=O)c(C)c1 | 14.1 µM (inactive) | 2.92 µM (inactive) | 12.3 µM (inactive) | 5.38 µM (inactive) | – | – | – | –
COC(=O)[C@H](Cc1c[nH]c2ccccc12)NC(=O)OCC1OC(n2cc(C)c(=O)[nH]c2=O)CC1N=[N+]=[N-] (stereo not given in full) | > 100 µM (inactive) | > 100 µM (inactive) | > 100 µM (inactive) | > 100 µM (inactive) | – | – | – | –
Cc1nn(C(=O)c2ccc(Cl)cc2)c2c1C(c1cccc([N+](=O)[O-])c1)SC(=N)N2 (stereo not given) | > 10 µM (inactive) | > 10 µM (inactive) | > 10 µM (inactive) | > 10 µM (inactive) | – | – | – | –
N=C(N)c1ccc(/N=N/c2c(O)ccc3cc(O)ccc23)cc1 | > 100 µM (inactive) | – | > 100 µM (inactive) | > 100 µM (inactive) | – | – | – | –
C[C@H](CCC(=O)NCCS(=O)(=O)O)[C@H]1CC[C@H]2[C@@H]3[C@H](O)C[C@@H]4C[C@H](O)CC[C@]4(C)[C@H]3CC[C@]12C | 45.9 µM (inactive) | > 100 µM (inactive) | > 100 µM (inactive) | > 100 µM (inactive) | – | – | – | –
O=S(=O)(O)c1cccc2c(/N=N/c3c(O)ccc4ccccc34)cccc12 | > 100 µM (inactive) | > 100 µM (inactive) | > 100 µM (inactive) | – | – | – | – | –
Cc1cn(C2CC(O)C(COP(=O)(O)OC3CC(n4c[n+]([BH2-]C#N)c5c(=O)[nH]c(N)nc54)OC3CO)O2)c(=O)[nH]c1=O (stereo not given) | > 100 µM (inactive) | > 100 µM (inactive) | > 100 µM (inactive) | > 100 µM (inactive) | – | – | – | –
COc1cc(C2c3cc4c(cc3[C@@H](NCCN3CCCCC3)C3COC(=O)[C@H]23)OCO4)cc(OC)c1O (stereo not given in full) | – | – | – | – | – | 1 µM (active) | 1.6 µM (inactive) | 0.509 µM (active)
c1ccc(-c2nc(-c3ccccc3)c(-c3ccccc3)[nH]2)cc1 | 60.3 µM (inactive) | 42.3 µM (inactive) | > 100 µM (inactive) | 70.3 µM (inactive) | – | – | – | –
CC(NC(=O)C(NC(=O)OCc1ccccc1)C(C)C)C(=O)NCC(=O)O (stereo not drawn) (Cbz-Val-Ala-Gly-OH; configuration not given here) | > 100 µM (inactive) | > 100 µM (inactive) | > 100 µM (inactive) | > 100 µM (inactive) | – | – | – | –
CCCCCCCCCCCC/C=C\CC[C@@H](O)[C@H](O)CC[C@H](O)[C@@H]1CC[C@@H](CCCCCCCC2=C[C@H](C)OC2=O)O1 [GIGANTRIONENIN] | 1.24 µM (inactive) | 3.43 µM (inactive) | 0.00819 µM (active) | 2.28 µM (inactive) | – | – | – | –
